# Measured values as given in article PMC9501232, “Novel 4-Azapregnene Derivatives as Potential Anticancer Agents: Synthesis, Antiproliferative Activity and Molecular Docking Studies” (Molecules, 2022).
# Key:
# [1] = system: PC-3 cells; assay: MTT cell proliferation assay, PC-3; type: cell-based, human
# Experimental: (§1) Cell lines, namely LNCaP, PC-3, T47-D and NHDF were obtained from American Type Culture Collection (ATCC; Manassas, VA, USA) and cultured in 75 cm^2 culture flasks at 37 °C in a humidified air incubator with 5% CO2. LNCaP, PC-3 and T47-D cells, which were used in passages 20th to 27th, 25th to 29th and 10th to 15th, respectively, were cultured in RPMI 1640 medium (Sigma-Aldrich, Inc., St. Louis, MO, USA) with 10% fetal bovine serum (FBS; Sigma-Aldrich, Inc. St. Louis, MO, USA) and 1% of the antibiotic mixture of 10,000 IU/mL penicillin G and […] of streptomycin (Sp, Sigma-Aldrich, Inc. St. Louis, MO, USA). Finally, NHDF cells (Normal Human Dermal Fibroblasts) were cultured in RPMI 1640 medium supplemented with 10% FBS, 2 mM L-glutamine, 10 mM HEPES, 1 mM sodium pyruvate and 1% of an antibiotic/antimycotic mixture (10,000 U/mL penicillin G, 100 mg/mL streptomycin and 25 µg/mL amphotericin B) (Ab; Sigma-Aldrich, Inc. St. Louis, MO, USA), and these cells were used in passages 10 to 12. For all cell types, the medium was renewed every 2–3 days until cells reach nearly the confluence state. Then, they were detached gently by trypsinization (trypsin-EDTA solution: 0.125 g/L of trypsin and 0.02 g/L of EDTA).
# (§2) All the stock solutions were prepared by dissolving compounds in dimethyl sulfoxide (DMSO; Sigma-Aldrich, Inc., St. Louis, MO, USA) at 10 mM and stored at 4 °C. From these solutions, the several diluted compounds solutions in different concentrations were freshly prepared in a complete culture medium before each experiment.
# (§3) As previously referred, cells were trypsinized after reaching a near confluence state and counted by the trypan blue exclusion assay in a Neubauer chamber. Then, 100 µL of cell suspension/well with an initial density of 2 × 10^4 cells/mL were seeded in 96-well culture plates (Nunc, Apogent, Denmark) and left to adhere for 48 h. After cells adherence, the medium was replaced by the distinct solutions of the compounds in the study (30 µM for preliminary studies and 0.01, 0.1, 1, 10, 50 and 100 µM for concentration–response studies) in the appropriate medium for approximately 72 h. 5-FU and finasteride were used as positive controls and untreated cells were used as the negative control. Each experiment was performed in quadruplicate and independently performed at least two times. The in vitro antiproliferative effects were evaluated by the MTT assay (Sigma-Aldrich, Inc. St. Louis, USA). After the incubation period, the medium was removed and 100 µL of phosphate buffer saline (NaCl 137 mM, KCl 2.7 mM, Na2HPO4 10 mM and KH2PO4 1.8 mM in deionized water and pH adjusted to 7.4) were used to wash the cells. Then, 100 µL of the MTT solution (5 mg/mL) was prepared in the appropriate serum-free medium and was added to each well, followed by incubation for 4 h at 37 °C. Hereafter, the MTT containing medium was removed and the formazan crystals were dissolved in DMSO. Then the absorbance was measured at 570 nm using a microplate spectrophotometer BIO-RAD xMarkTM. Cell viability values were expressed as percentages relative to the absorbance determined in the cells used as negative controls.
# (§4) The data are expressed as a mean ± standard deviation (SD) and differences between groups were considered statistically significant when p < 0.05. The IC50 values were determined through sigmoidal fitting analysis with variable slope and considering a 95% confidence level. All data shown are representative of at least two independent experiments.
# [2] = system: NHDF cells (Normal Human Dermal Fibroblasts); assay: MTT cell proliferation assay, NHDF; type: cell-based; conditions: 72 h
# Experimental: as §1, §2, §3, §4
# [3] = system: T47-D cells; assay: Cell nuclear morphology and distribution analysis with ImageJ; type: cell-based, human
# Text: The nuclear measurements were achieved by converting 16-bit photomicrographs of Hoechst 3342-stained nuclei, in different conditions, into 8-bit images and then these images were autothresholded to binary photos using the default method “Make binary” function of ImageJ v 1.49. Cell nuclei that are touching were separated and fragments were discarded based on the area through the “Analyze Particle” function. This function also provides several information pretended as nuclear area, circumference and form factor [33]. In addition, the “Nearest Neighbor Distance” was determined. This function allows measuring the distance between each cell nucleus and the nearest ones.
# [4] = system: T47-D cells; assay: MTT cell proliferation assay, T47-D; type: cell-based, human; conditions: 72 h
# Experimental: as §1, §2, §3, §4
smiles,measurement,setting,value
"C[C@]12CC[C@H]3[C@@H](CC=C4NC(=O)CC[C@@]43C)[C@@H]1CC[C@@H]2C(=O)/C=C/c1cccnc1 [Compound 3g, 21E-[(Pyridin-3-yl)methylidene]-4-azapregn-5-ene-3,20-dione]",IC50,"[1]; Homo sapiens, PC-3, 72 h, MTT",3.64 µM
same,"MTT screening, cell proliferation","[1]; PC-3, 30 µM, 72 h, average ± SD",0.1 ± 0.1 percentage of negative control
same,"MTT screening, cell proliferation","[2]; 30 µM, average ± SD",23.8 ± 3.2 percentage of negative control
same,IC50,"[2]; Homo sapiens, MTT",3.09 µM
same,Nuclear area,"[3]; 20 µM, 24, 48 and 72 h, vs control",significant decrease in the nuclear area
same,Nearest neighbor distance (NND) of cell nuclei,"[3]; 20 µM, 48 and 72 h",different distances
same,"MTT screening, cell proliferation","[4]; 30 µM, average ± SD",1.0 ± 0.4 percentage of negative control
same,IC50,"[4]; Homo sapiens, T47D, MTT",1.33 µM
